Patent publication EP4635500A1, “THERAPEUTIC AGENT FOR BACTERIAL INFECTION” (Sumitomo Pharma Co., Ltd., priority 2022, dated 2024)
In brackets after ≈: the same amount, converted by molar mass. Where two headings read alike, the source gives them in different places.

Assays:
Prevotella spp. = test: MIC, agar dilution, anaerobic bacteria (Example 9, Tables 18, 23); format: cell-based; settings: for MIC: (n)=Compound A µg/mL, 0=Compound A alone antibacterial
Klebsiella pneumoniae = test: MIC and MBC, broth microdilution (Example 4, Table 3); format: cell-based; settings: Klebsiella pneumoniae; for MIC: read-out: MIC
[1] = ATCCBAA2344, Klebsiella pneumoniae ATCC BAA-2344 (KPC-2)
[2] = ATCCBAA2470, Klebsiella pneumoniae ATCC BAA-2470 (NDM-1)
[3] = ATCCBAA2524, Klebsiella pneumoniae ATCC BAA-2524 (OXA-48)
[4] = Klebsiella pneumoniae CDC-112 (KPC-3)
[5] = Klebsiella pneumoniae CDC-505 (NDM-1)
[6] = Klebsiella pneumoniae KUB3607 (IMP-1)

C[C@@H](O)[C@H]1C(=O)N2C(C(=O)O)=C(S[C@@H]3CN[C@H](C(=O)N(C)C)C3)[C@H](C)[C@H]12 [MEPM, meropenem]
MIC (Prevotella spp.; KUB No. 2989 Prevotella histicola): 0.06 µg/mL (≈ 0.156 µM)
MIC (Prevotella spp.; KUB No. 2991 Prevotella intermedia): 0.06 µg/mL (≈ 0.156 µM)
MIC (Prevotella spp.; KUB No. 2992 Prevotella buccae): 0.12 µg/mL (≈ 0.313 µM)
MIC (Prevotella spp.; KUB No. 3005 Prevotella melaninogenica): ≤ 0.03 µg/mL
MIC (Prevotella spp.; KUB No. 6558 Prevotella heparinolytica): 0.06 µg/mL (≈ 0.156 µM)
MIC (Prevotella spp.; KUB No. 6559 Prevotella intermedia): ≤ 0.03 µg/mL
MIC (Prevotella spp.; KUB No. 6560 Prevotella nigrescens): ≤ 0.03 µg/mL
MIC (Prevotella spp.; KUB No. 6561 Prevotella melaninogenica): 0.12 µg/mL (≈ 0.313 µM)
MIC (Prevotella spp.; KUB No. 6563 Prevotella nigrescens): ≤ 0.03 µg/mL
MIC (Prevotella spp.; KUB No. 6564 Prevotella buccae): 0.12 µg/mL (≈ 0.313 µM)
MIC (Prevotella spp.; KUB No. 6565 Prevotella nigrescens): 0.06 µg/mL (≈ 0.156 µM)
MIC (Prevotella spp.; KUB No. 6567 Prevotella melaninogenica): ≤ 0.03 µg/mL
MIC (Prevotella spp.; KUB No. 6568 Prevotella intermedia): 0.06 µg/mL (≈ 0.156 µM)
MIC (Prevotella spp.; KUB No. 6569 Prevotella nanceiensis): 0.5 µg/mL (≈ 1.3 µM)
MIC (Prevotella spp.; KUB No. 6570 Prevotella intermedia): 0.06 µg/mL (≈ 0.156 µM)
MIC (Prevotella spp.; KUB No. 6571 Prevotella denticola): 0.06 µg/mL (≈ 0.156 µM)
MIC (Prevotella spp.; KUB No. 6572 Prevotella melaninogenica): 0.06 µg/mL (≈ 0.156 µM)
MIC (Prevotella spp.; KUB No. 6574 Prevotella oris): ≤ 0.03 µg/mL
MIC (Prevotella spp.; KUB No. 6575 Prevotella nigrescens): ≤ 0.03 µg/mL
MIC (Prevotella spp.; KUB No. 6576 Prevotella intermedia): ≤ 0.03 µg/mL
MIC (Prevotella spp.; KUB No. 6579 Prevotella pallens): 0.06 µg/mL (≈ 0.156 µM)
MIC (Prevotella spp.; KUB No. 6581 Prevotella intermedia): 0.06 µg/mL (≈ 0.156 µM)
MIC (Prevotella spp.; KUB No. 6582 Prevotella melaninogenica): 0.06 µg/mL (≈ 0.156 µM)
MIC (Prevotella spp.; KUB No. 6585 Prevotella baroniae): 0.06 µg/mL (≈ 0.156 µM)
MIC (Prevotella spp.; KUB No. 6587 Prevotella melaninogenica): 0.06 µg/mL (≈ 0.156 µM)
MIC (Prevotella spp.; KUB No. 6588 Prevotella nigrescens): ≤ 0.03 µg/mL
MIC (Prevotella spp.; KUB No. 6589 Prevotella buccae): 0.12 µg/mL (≈ 0.313 µM)
MIC (Prevotella spp.; KUB No. 6590 Prevotella buccae): 0.32 µg/mL (≈ 0.834 µM)
MIC (Prevotella spp.; KUB No. 6591 Prevotella intermedia): 0.06 µg/mL (≈ 0.156 µM)
MIC (Prevotella spp.; KUB No. 6592 Prevotella jejuni): 0.06 µg/mL (≈ 0.156 µM)
MIC (Prevotella spp.; KUB No. 6600 Prevotella intermedia): ≤ 0.03 µg/mL
MIC (Prevotella spp.; KUB No. 6601 Prevotella melaninogenica): 0.12 µg/mL (≈ 0.313 µM)
MIC (Prevotella spp.; KUB No. 6603 Prevotella melaninogenica): 0.12 µg/mL (≈ 0.313 µM)
MIC (Prevotella spp.; KUB No. 6609 Prevotella buccae): 0.12 µg/mL (≈ 0.313 µM)
MIC (Prevotella spp.; KUB No. 6611 Prevotella nigrescens): 0.06 µg/mL (≈ 0.156 µM)
MIC (Prevotella spp.; KUB No. 6612 Prevotella oris): 0.25 µg/mL (≈ 0.652 µM)
MIC (Prevotella spp.; KUB No. 6613 Prevotella buccae): 0.12 µg/mL (≈ 0.313 µM)
MIC (Prevotella spp.; KUB No. 6614 Prevotella intermedia): ≤ 0.03 µg/mL
MIC (Prevotella spp.; KUB No. 6615 Prevotella buccae): 0.06 µg/mL (≈ 0.156 µM)
MIC (Prevotella spp.; KUB No. 6617 Prevotella buccae): 0.06 µg/mL (≈ 0.156 µM)
MIC (Prevotella spp.; KUB No. 6618 Prevotella melaninogenica): 0.06 µg/mL (≈ 0.156 µM)
MIC (Prevotella spp.; KUB No. 6622 Prevotella loescheii): 0.06 µg/mL (≈ 0.156 µM)
MIC (Prevotella spp.; KUB No. 6623 Prevotella nigrescens): ≤ 0.03 µg/mL
MIC (Prevotella spp.; KUB No. 6625 Prevotella melaninogenica): ≤ 0.03 µg/mL
MIC (Prevotella spp.; KUB No. 6626 Prevotella loescheii): ≤ 0.03 µg/mL
MIC (Prevotella spp.; KUB No. 6629 Prevotella bivia): 0.06 µg/mL (≈ 0.156 µM)
MIC (Prevotella spp.; KUB No. 6630 Prevotella nigrescens): ≤ 0.03 µg/mL
MIC (Prevotella spp.; KUB No. 6631 Prevotella jejuni): 0.06 µg/mL (≈ 0.156 µM)
MIC50 (Prevotella spp.; Prevotella spp.): 0.06 µg/mL (≈ 0.156 µM)
MIC90 (Prevotella spp.; Prevotella spp.): 0.12 µg/mL (≈ 0.313 µM)
MICrange (Prevotella spp.; Prevotella spp.): ≤0.03 to 0.5 µg/mL
MIC (Prevotella spp.; Prevotella, KUB No. 6583 Prevotella nonceiensis): 0.12 µg/mL (≈ 0.313 µM)
MIC (Prevotella spp.; Prevotella, KUB No. 6604 Prevotella nonceiensis): 0.25 µg/mL (≈ 0.652 µM)
MIC50 (Prevotella spp.; Prevotella, n=54, combination: Compound A at 4 ug/mL, read-out: MIC50): 0.06 µg/mL
MIC90 (Prevotella spp.; Prevotella, n=54, combination: Compound A at 4 ug/mL, read-out: MIC90): 0.12 µg/mL
MIC (Prevotella spp.; po, KUB No. 6566 Prevotella oralis): ≤ 0.03 µg/mL
MBC (Klebsiella pneumoniae; [1]): 32 µg/mL (≈ 83.4 µM)
MIC (Klebsiella pneumoniae; [1]): 16 µg/mL (≈ 41.7 µM)
MBC (Klebsiella pneumoniae; [2]): 32 µg/mL (≈ 83.4 µM)
MIC (Klebsiella pneumoniae; [2]): 32 µg/mL (≈ 83.4 µM)
MBC (Klebsiella pneumoniae; [3]): 4 µg/mL (≈ 10.4 µM)
MIC (Klebsiella pneumoniae; [3]): 1 µg/mL (≈ 2.61 µM)
MBC (Klebsiella pneumoniae; [4]): 32 µg/mL (≈ 83.4 µM)
MIC (Klebsiella pneumoniae; [4]): 32 µg/mL (≈ 83.4 µM)
MBC (Klebsiella pneumoniae; [5]): 64 µg/mL (≈ 167 µM)
MIC (Klebsiella pneumoniae; [5]): 64 µg/mL (≈ 167 µM)
MBC (Klebsiella pneumoniae; [6]): 8 µg/mL (≈ 20.9 µM)
MIC (Klebsiella pneumoniae; [6]): 8 µg/mL (≈ 20.9 µM)
MBC (Klebsiella pneumoniae; NCTC13440, Klebsiella pneumoniae NCTC13440 (VIM-1)): 64 µg/mL (≈ 167 µM)
